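Grown in 96-well plates, cells were treated for 48 hours with each compound at five concentrations. Insufficient inhibition: endpoint recorded as highest concentration tested. At the GI50, growth is halved. Definition used: TGI = concentration required for complete inhibition of growth.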
How the values were obtained:
Assay in all cases: DTP human tumour cell line panel, 48 h
NCI-H460 lung = tested on: NCI-H460 lung
CAKI-1 renal = tested on: CAKI-1 renal
OVCAR-3 ovarian = tested on: OVCAR-3 ovarian
SNB-19 CNS = tested on: SNB-19 CNS
HOP-92 NSCLC = tested on: HOP-92 NSCLC
SF-268 CNS = tested on: SF-268 CNS
BT-549 breast = tested on: BT-549 breast
NCI/ADR-RES ovarian = tested on: NCI/ADR-RES ovarian
OVCAR-5 ovarian = tested on: OVCAR-5 ovarian
MCF7 breast = tested on: MCF7 breast
LOX IMVI melanoma = tested on: LOX IMVI melanoma
UACC-62 melanoma = tested on: UACC-62 melanoma
PC-3 prostate = tested on: PC-3 prostate
SNB-75 CNS = tested on: SNB-75 CNS
SK-MEL-5 melanoma = tested on: SK-MEL-5 melanoma
HOP-62 NSCLC = tested on: HOP-62 NSCLC
COLO 205 colon = tested on: COLO 205 colon
MOLT-4 leukemia = tested on: MOLT-4 leukemia
MDA-MB-231 breast = tested on: MDA-MB-231 breast
A549 NSCLC = tested on: A549 NSCLC
HT29 colon = tested on: HT29 colon
SN12C renal = tested on: SN12C renal
786-0 renal = tested on: 786-0 renal
EKVX NSCLC = tested on: EKVX NSCLC
U251 CNS = tested on: U251 CNS
SK-MEL-28 melanoma = tested on: SK-MEL-28 melanoma
RPMI-8226 leukemia = tested on: RPMI-8226 leukemia
HS 578T breast = tested on: HS 578T breast
RXF 393 renal = tested on: RXF 393 renal
A498 renal = tested on: A498 renal
M14 melanoma = tested on: M14 melanoma
TK-10 renal = tested on: TK-10 renal
ACHN renal = tested on: ACHN renal
K-562 leukemia = tested on: K-562 leukemia
DU-145 prostate = tested on: DU-145 prostate
IGROV1 ovarian = tested on: IGROV1 ovarian
SR leukemia = tested on: SR leukemia
UACC-257 melanoma = tested on: UACC-257 melanoma
SK-OV-3 ovarian = tested on: SK-OV-3 ovarian
HL-60(TB) leukemia = tested on: HL-60(TB) leukemia
SF-295 CNS = tested on: SF-295 CNS
HCC-2998 colon = tested on: HCC-2998 colon
SW-620 colon = tested on: SW-620 colon
SF-539 CNS = tested on: SF-539 CNS
OVCAR-4 ovarian = tested on: OVCAR-4 ovarian
KM12 colon = tested on: KM12 colon
SK-MEL-2 melanoma = tested on: SK-MEL-2 melanoma
NCI-H23 lung = tested on: NCI-H23 lung
NCI-H226 lung = tested on: NCI-H226 lung
NCI-H522 lung = tested on: NCI-H522 lung
HCT-15 colon = tested on: HCT-15 colon
MDA-MB-435 = tested on: MDA-MB-435
UO-31 renal = tested on: UO-31 renal
HCT-116 colon = tested on: HCT-116 colon
MALME-3M melanoma = tested on: MALME-3M melanoma
T-47D breast = tested on: T-47D breast
CCRF-CEM leukemia = tested on: CCRF-CEM leukemia
OVCAR-8 ovarian = tested on: OVCAR-8 ovarian

## S=C(NCCNC(=S)[S][Sn]([c]1ccccc1)([c]1ccccc1)[c]1ccccc1)[S][Sn]([c]1ccccc1)([c]1ccccc1)[c]1ccccc1
NCI-H460 lung
  GI50: 16.9 nM
  TGI: 57.5 nM
CAKI-1 renal
  GI50: 38.6 nM
  TGI: 146 nM
OVCAR-3 ovarian
  GI50: 14.5 nM
  TGI: 38.4 nM
SNB-19 CNS
  GI50: 63.8 nM
  TGI: 139 nM
HOP-92 NSCLC
  GI50: 10.2 nM
  TGI: 49.3 nM
SF-268 CNS
  GI50: 41.6 nM
  TGI: 123 nM
BT-549 breast
  GI50: 79.9 nM
  TGI: 183 nM
NCI/ADR-RES ovarian
  GI50: 18.4 nM
  TGI: 97.6 nM
OVCAR-5 ovarian
  GI50: 49.6 nM
  TGI: 123 nM
MCF7 breast
  GI50: 13.3 nM
  TGI: 55.3 nM
LOX IMVI melanoma
  GI50: 15.2 nM
  TGI: 54.1 nM
UACC-62 melanoma
  GI50: 23.1 nM
  TGI: 104 nM
PC-3 prostate
  GI50: 31.1 nM
  TGI: 153 nM
SNB-75 CNS
  GI50: 16.2 nM
  TGI: 87 nM
SK-MEL-5 melanoma
  GI50: 43.2 nM
  TGI: 108 nM
HOP-62 NSCLC
  GI50: 67.7 nM
  TGI: 147 nM
COLO 205 colon
  GI50: 16.6 nM
  TGI: 41.1 nM
MOLT-4 leukemia
  GI50: 22.2 nM
  TGI: 309 nM
MDA-MB-231 breast
  GI50: 20.7 nM
  TGI: 95.7 nM
A549 NSCLC
  GI50: 23.1 nM
  TGI: 93.8 nM
HT29 colon
  GI50: 19 nM
  TGI: 58.4 nM
SN12C renal
  GI50: 32.5 nM
  TGI: 218 nM
786-0 renal
  GI50: 36.6 nM
  TGI: 104 nM
EKVX NSCLC
  GI50: 30.4 nM
  TGI: 129 nM
U251 CNS
  GI50: 18.7 nM
  TGI: 64 nM
SK-MEL-28 melanoma
  GI50: 23.7 nM
  TGI: 81.7 nM
RPMI-8226 leukemia
  GI50: 23.4 nM
  TGI: 147 nM
HS 578T breast
  GI50: 56.4 nM
  TGI: 461 nM
RXF 393 renal
  GI50: 10 nM
  TGI: 20.6 nM
A498 renal
  GI50: 23.1 nM
  TGI: 84.9 nM
M14 melanoma
  GI50: 26.7 nM
  TGI: 97.6 nM
TK-10 renal
  GI50: 61.2 nM
  TGI: 126 nM
ACHN renal
  GI50: 18.5 nM
  TGI: 62.4 nM
K-562 leukemia
  GI50: 16.8 nM
  TGI: 144 nM
DU-145 prostate
  GI50: 18.1 nM
  TGI: 54.2 nM
IGROV1 ovarian
  GI50: 42.9 nM
  TGI: 216 nM
SR leukemia
  GI50: 17 nM
  TGI: 16200 nM
UACC-257 melanoma
  GI50: 52.2 nM
  TGI: 117 nM
SK-OV-3 ovarian
  GI50: 23.1 nM
  TGI: 79.9 nM
HL-60(TB) leukemia
  GI50: 93 nM
  TGI: 312 nM
SF-295 CNS
  GI50: 99 nM
  TGI: 227 nM
HCC-2998 colon
  GI50: 21.9 nM
  TGI: 76.4 nM
SW-620 colon
  GI50: 14 nM
  TGI: 37.9 nM
SF-539 CNS
  GI50: 68.2 nM
  TGI: 203 nM
OVCAR-4 ovarian
  GI50: 21.2 nM
  TGI: 80.5 nM
KM12 colon
  GI50: 19.7 nM
  TGI: 65.2 nM
SK-MEL-2 melanoma
  GI50: 82.3 nM
  TGI: 215 nM
NCI-H23 lung
  GI50: 27.3 nM
  TGI: 119 nM
NCI-H226 lung
  GI50: 63.9 nM
  TGI: 144 nM
NCI-H522 lung
  GI50: 26.5 nM
  TGI: 94.1 nM
HCT-15 colon
  GI50: 17.7 nM
  TGI: 69.6 nM
MDA-MB-435
  GI50: 15.3 nM
  TGI: 55.9 nM
UO-31 renal
  GI50: 33.7 nM
  TGI: 100 nM
HCT-116 colon
  GI50: 12.7 nM
  TGI: 31.5 nM
MALME-3M melanoma
  GI50: 68.7 nM
  TGI: 201 nM
T-47D breast
  GI50: 20 nM
  TGI: 91 nM
CCRF-CEM leukemia
  GI50: 17.9 nM
  TGI: 657 nM
OVCAR-8 ovarian
  GI50: 44.5 nM
  TGI: 202 nM
